From patent US10294202B2, “Pyrrolidinones as herbicides” (FMC Corporation, priority 2013, dated 2019)
Read-outs that look alike come from different tables or passages of the source.

Legend:
ducksalad = experiment: Test B flooded paddy test; assay type: in vivo, Heteranthera limosa; details: Flood, scale of 0 to 100 where 0 is no effect and 100 is complete control
Method in brief: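 2-leaf plants; flood 3 cm over soil; compound into paddy water; depth held. Greenhouse 13–15 d. Visual rating vs controls, 0 (no effect) to 100 (complete control); dash = not tested.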

barnyardgrass = experiment: Test C pre-/postemergence herbicide test; assay type: in vivo, Echinochloa crus-galli; details: for Barnyardgrass plant response rating: scale 0 to 100, 0 is no effect and 100 is complete control
Method in brief: (§1)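 Test compounds, formulated in a surfactant-containing non-phytotoxic solvent blend, are applied to seeded loam/sand soil (preemergence) and to young plants at the 1- to 4-leaf stage in peat-based medium (postemergence). Plants stay 13 to 15 days under greenhouse conditions, then are scored visually relative to controls, 0 = no effect, 100 = complete control.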

foxtail, giant = experiment: Test C pre-/postemergence herbicide test; assay type: in vivo, Setaria faberii
Method in brief: as §1

morningglory = experiment: Test C pre-/postemergence herbicide test; assay type: in vivo, Ipomoea coccinea; details: for Morningglory plant response rating: scale 0 to 100, 0 is no effect and 100 is complete control
Method in brief: as §1

oilseed rape = experiment: Test C pre-/postemergence herbicide test; assay type: in vivo, Brassica napus; details: for Oilseed Rape plant response rating: scale 0 to 100, 0 is no effect and 100 is complete control
Method in brief: as §1

wheat = experiment: Test A pre-/postemergence herbicide test; assay type: in vivo, Triticum aestivum; details: for Wheat plant response rating: Preemergence, visual rating on 0 to 100 scale (0 no effect, 100 complete control); for plant injury at 125 g/ha / plant injury at 500 g/ha: Triticum aestivum, 240 h, read-out: Plant response rating, Wheat
Method in brief: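 Planted in loam–sand blend; treated the same day preemergence by directed soil spray, while separately grown plants at one- to two-leaf stage got postemergence spray. Compared visually with untreated controls after approximately 10 days; 100 means complete control.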

[1] = Preemergence, 62 g ai/ha, scale 0 to 100
[2] = Preemergence, 125 g ai/ha, scale 0 to 100 (0 no effect, 100 complete control)
[3] = Preemergence, 31 g ai/ha, scale 0 to 100, 0 is no effect and 100 is complete control
[4] = Postemergence, 125 g ai/ha, 0 to 100 scale, 0 no effect, 100 complete control
[5] = Postemergence, 500 g ai/ha, 0 to 100 scale (0 no effect, 100 complete control)
[6] = preemergence, 500 g ai/ha, 0 to 100 scale
[7] = Postemergence, 31 g ai/ha, scale 0 (no effect) to 100 (complete control)
[8] = Postemergence, 62 g ai/ha, scale 0 to 100 (0 no effect, 100 complete control)
[9] = Postemergence, 125 g ai/ha, scale 0 to 100 (0 no effect, 100 complete control)
[10] = Postemergence, 250 g ai/ha, scale 0 to 100 (0 no effect, 100 complete control)
[11] = post-emergence, Postemergence, 125 g ai/ha, 0 to 100 scale, 0 no effect, 100 complete control
[12] = post-emergence, Postemergence, 500 g ai/ha, 0 to 100 scale (0 no effect, 100 complete control)
[13] = pre-emergence, preemergence, 500 g ai/ha, 0 to 100 scale

Row | Compound | Plant response rating, Ducksalad (ducksalad; 250 g ai/ha) | Foxtail, Giant plant response rating (foxtail, giant; [3]) | Plant response rating, Foxtail, Giant (foxtail, giant; [1]) | Plant response rating, Foxtail, Giant (foxtail, giant; [2]) | Plant response rating (scale of 0 to 100), Foxtail, Giant (foxtail, giant; Preemergence, 250 g ai/ha) | Morningglory plant response rating (morningglory; Preemergence, 31 g ai/ha) | Plant response rating, Morningglory (morningglory; [1]) | Plant response rating, Morningglory (morningglory; [2]) | Plant response rating (scale of 0 to 100), Morningglory (morningglory; Preemergence, 250 g ai/ha) | Plant response rating, Wheat (wheat; [4]) | Plant response rating, Wheat (wheat; [5]) | Wheat plant response rating (wheat; 125 g ai/ha) | Plant response rating, Foxtail, Giant (foxtail, giant; [7]) | Plant response rating, Foxtail, Giant (foxtail, giant; [8]) | Plant response rating, Foxtail, Giant (foxtail, giant; [9]) | Plant response rating, Foxtail, Giant (foxtail, giant; [10]) | Plant response rating, Morningglory (morningglory; [7]) | Plant response rating, Morningglory (morningglory; [8]) | Plant response rating, Morningglory (morningglory; [9]) | Plant response rating, Morningglory (morningglory; [10]) | also measured
1 | O=C1NCC(c2ccc(F)c(C(F)(F)F)c2)C1C(=O)Nc1cccc(F)c1F (racemic) [Compound 77] | 100 | 90 | 90 | 95 | 100 | 0 | 0 | 0 | 0 | 50 | 60 | 0 |  |  |  |  |  |  |  |  | Barnyardgrass plant response rating (barnyardgrass; Preemergence, 31 g ai/ha): 90; Plant response rating, Barnyardgrass (barnyardgrass; [1]): 95; Plant response rating, Barnyardgrass (barnyardgrass; [2]): 95; Plant response rating (scale of 0 to 100; 0 is no effect, 100 is complete control), Barnyardgrass (barnyardgrass; Preemergence, 250 g ai/ha): 95; Oilseed Rape plant response rating (oilseed rape; Preemergence, 31 g ai/ha): 0; Plant response rating, Oilseed Rape (oilseed rape; [1]): 30; Plant response rating, Oilseed Rape (oilseed rape; [2]): 60; Plant response rating (scale of 0 to 100), Oilseed Rape (oilseed rape; Preemergence, 250 g ai/ha): 85; Plant response rating, Wheat (wheat; [6]): 30
2 | Cc1c(F)cccc1NC(=O)C1C(=O)NCC1c1ccc(F)c(F)c1 (racemic) [Compound 106] |  |  |  |  |  |  |  |  |  |  |  |  | 50 | 35 | 45 | 50 | 0 | 5 | 10 | 5 | Plant response rating, Ducksalad (ducksalad; 1000 g ai/ha): 90; Plant response rating, Barnyardgrass (barnyardgrass; [7]): 0; Plant response rating, Barnyardgrass (barnyardgrass; [8]): 0; Plant response rating, Barnyardgrass (barnyardgrass; [9]): 0; Plant response rating, Barnyardgrass (barnyardgrass; [10]): 30; Plant response rating, Oilseed Rape (oilseed rape; [7]): 0; Plant response rating, Oilseed Rape (oilseed rape; [8]): 0; Plant response rating, Oilseed Rape (oilseed rape; [9]): 0; Plant response rating, Oilseed Rape (oilseed rape; [10]): 0; Plant response rating, Wheat (wheat; Postemergence, 1000 g ai/ha, 0 to 100 scale (0 no effect, 100 complete control)): 30; Plant response rating, Wheat (wheat; preemergence, 1000 g ai/ha, 0 to 100 scale): 50
3 | O=C1NCC(c2ccc(C(F)(F)F)cc2)C1C(=O)Nc1ccccc1F (centres unmarked) [Compound 79, N-(2-fluorophenyl)-2-oxo-4-[4-(trifluoromethyl)phenyl]-3-pyrrolidinecarboxamide] | 90 | 80 | 90 | 95 | 98 | 0 | 0 | 0 | 0 |  |  | 0 | 15 | 15 | 15 | 15 | 0 | 0 | 5 | 5 | Plant response rating, Barnyardgrass (barnyardgrass; [7]): 0; Plant response rating, Barnyardgrass (barnyardgrass; [8]): 0; Plant response rating, Barnyardgrass (barnyardgrass; [9]): 35; Plant response rating, Barnyardgrass (barnyardgrass; [10]): 60; Barnyardgrass plant response rating (barnyardgrass; Preemergence, 31 g ai/ha): 40; Plant response rating, Barnyardgrass (barnyardgrass; [1]): 95; Plant response rating, Barnyardgrass (barnyardgrass; [2]): 95; Plant response rating (scale of 0 to 100; 0 is no effect, 100 is complete control), Barnyardgrass (barnyardgrass; Preemergence, 250 g ai/ha): 98; Plant response rating, Oilseed Rape (oilseed rape; [7]): 0; Plant response rating, Oilseed Rape (oilseed rape; [8]): 0; Plant response rating, Oilseed Rape (oilseed rape; [9]): 0; Plant response rating, Oilseed Rape (oilseed rape; [10]): 0; Oilseed Rape plant response rating (oilseed rape; Preemergence, 31 g ai/ha): 0; Plant response rating, Oilseed Rape (oilseed rape; [1]): 5; Plant response rating, Oilseed Rape (oilseed rape; [2]): 70; Plant response rating (scale of 0 to 100), Oilseed Rape (oilseed rape; Preemergence, 250 g ai/ha): 80; plant injury at 125 g/ha (wheat; [11]): 30%; plant injury at 500 g/ha (wheat; [12]): 50%; plant injury at 500 g/ha (wheat; [13]): 20%
4 | O=C1NCC(c2ccc(C(F)(F)F)cc2)C1C(=O)Nc1cccc(F)c1F (centres unmarked) [Compound 80, N-(2,3-difluorophenyl)-2-oxo-4-[4-(trifluoromethyl)phenyl]-3-pyrrolidinecarboxamide] | 75 | 90 | 95 | 98 | 98 | 0 | 0 | 20 | 20 |  |  | 0 | 0 | 0 | 45 | 45 | 0 | 5 | 5 | 5 | Plant response rating, Barnyardgrass (barnyardgrass; [7]): 0; Plant response rating, Barnyardgrass (barnyardgrass; [8]): 20; Plant response rating, Barnyardgrass (barnyardgrass; [9]): 35; Plant response rating, Barnyardgrass (barnyardgrass; [10]): 70; Barnyardgrass plant response rating (barnyardgrass; Preemergence, 31 g ai/ha): 85; Plant response rating, Barnyardgrass (barnyardgrass; [1]): 95; Plant response rating, Barnyardgrass (barnyardgrass; [2]): 95; Plant response rating (scale of 0 to 100; 0 is no effect, 100 is complete control), Barnyardgrass (barnyardgrass; Preemergence, 250 g ai/ha): 95; Plant response rating, Oilseed Rape (oilseed rape; [7]): 0; Plant response rating, Oilseed Rape (oilseed rape; [8]): 0; Plant response rating, Oilseed Rape (oilseed rape; [9]): 20; Plant response rating, Oilseed Rape (oilseed rape; [10]): 60; Oilseed Rape plant response rating (oilseed rape; Preemergence, 31 g ai/ha): 5; Plant response rating, Oilseed Rape (oilseed rape; [1]): 85; Plant response rating, Oilseed Rape (oilseed rape; [2]): 90; Plant response rating (scale of 0 to 100), Oilseed Rape (oilseed rape; Preemergence, 250 g ai/ha): 90; plant injury at 125 g/ha (wheat; [11]): 40%; plant injury at 500 g/ha (wheat; [12]): 50%; plant injury at 500 g/ha (wheat; [13]): 20%
5 | O=C1NCC(c2ccc(Cl)c(F)c2)C1C(=O)Nc1cccc(F)c1F (centres unmarked) [Compound 52] | 90 |  | 80 | 80 |  |  | 0 | 0 |  | 0 | 30 | 0 | 0 | 0 | 0 | 25 | 5 | 10 | 10 | 30 | Foxtail, Giant plant response rating (foxtail, giant; Preemergence, 31 g ai/ha, scale 0 to 100 (0 no effect, 100 complete control)): 55; Plant response rating, Foxtail, Giant (foxtail, giant; Preemergence, 250 g ai/ha, scale 0 to 100 (0 no effect, 100 complete control)): 85; Plant response rating, Wheat (wheat; [6]): 0
6 | O=C1NCC(c2cc(F)c(F)cc2F)C1C(=O)Nc1cccc(F)c1F (centres unmarked) [Compound 50] | 90 |  |  |  |  |  |  |  |  | 0 | 0 | 0 | 0 | 5 | 5 | 10 | 0 | 0 | 10 | 10 | Plant response rating, Wheat (wheat; [6]): 0
7 | O=C1NCC(c2cccc(OC(F)(F)F)c2)C1C(=O)Nc1ccccc1F (centres unmarked) [Compound 69] | 85 | 75 | 85 | 85 | 90 | 20 |  | 25 | 25 | 0 | 40 | 0 |  |  |  |  |  |  |  |  | Plant response rating, Wheat (wheat; [6]): 20
